Data on five compounds can be found in patent publication US10053422B2, “Compounds for the treatment of mTOR pathway related diseases” (Pitney Pharmaceuticals Pty Limited, priority 2012, dated 2018).

Entries after “also recorded” stand apart in the source; their conditions may differ. Where two headings read alike, the source gives them in different places.

The test system of assay [1] is HUVEC (human umbilical vein endothelial cells). In words: SRB cell proliferation assay, HUVEC. It is filed as cell-based. As for the experimental part: (§1) Cell proliferation was assessed using the sulforhodamine B (SRB) assay. Cells seeded in 96-well plate (2,000-3,000 cell/well) were treated with MPL (0, 1, 5, 10, 25, 50 and 100 μmol/L) for 72 h. Cells were then fixed, washed and stained with 100 μl of 0.4% (w/v) SRB dissolved in 1% acetic acid. Unbound dye was removed by five washes with 1% acetic acid before air drying. Bound SRB was solubilized with 100 μl of 10 mM Tris base (pH 10.5) and the absorbance read at 570 nm. Exactly the same procedure was used to assess MPL-SO2. Both agents were dissolved in ethanol and diluted with media to give the final concentrations required for cell culture assays.

Another assay has as its system A2780 cells. In words: SRB cell proliferation assay, A2780. In kind it is cell-based, human. How it is done:
as §1

Assay [2] deals with CHO (Chinese hamster ovarian cells). In words: SRB cell proliferation assay, CHO. In kind it is cell-based. The conditions noted are these: Cricetulus griseus. How it is done:
as §1

Another assay has as its system OVCAR-3 cells. Description: SRB cell proliferation assay, OVCAR-3. In kind it is cell-based, human. As for the experimental part:
as §1

The subject of a further assay is nematodes. The conditions noted are these: previously shown; cited from earlier work.
Assay [3] deals with HT-29 cells (colorectal cancer). In words: SRB cell proliferation assay, HT-29. The conditions noted are these: Homo sapiens; HT-29, colorectal cancer (Table 2); read-out: IC50 in suppressing proliferation. In kind it is cell-based. How it is done:
as §1

For a further assay, the system named is SKOV-3 cells. In words: SRB cell proliferation assay, SKOV-3. It is filed as cell-based. The conditions noted are these: Homo sapiens, SK-OV-3. As for the experimental part:
as §1

The test system of another assay is MCF-7 cells. In words: SRB cell proliferation assay, MCF-7. It is filed as cell-based. The conditions noted are these: Homo sapiens, MCF7. As for the experimental part: as §1
Assay [4] concerns HT-29 5m11 cells (colorectal cancer). In words: SRB cell proliferation assay, HT-29 5m11. It is filed as cell-based. The conditions noted are these: Homo sapiens; HT-29 5m11, colorectal cancer (Table 2); read-out: IC50 in suppressing proliferation. How it is done:
as §1

For another assay, the system named is HaCat keratinocyte. In words: SRB cell proliferation assay, HaCat. In kind it is cell-based. The conditions noted are these: Homo sapiens, keratinocyte (Table 2), read-out: IC50 in suppressing proliferation. How it is done: as §1
In a further assay the test system is U87 glioma cells. In words: Autophagy (vacuoles, LC3-II), U87. In kind it is cell-based. The conditions noted are these: U87 glioma cells. The text has this:
Autophagy is a characteristic of mTOR inhibition.
Concentration-dependent conversion of LC3-I to LC3-II confirms the increasing phenomenon of autophagy in these cells.

The next assay relates to T98G cells (glioma). Description: SRB cell proliferation assay, T98G. It is filed as cell-based. The conditions noted are these: Homo sapiens, glioma (Table 2), read-out: IC50 in suppressing proliferation. As for the experimental part: as §1
The next assay deals with LN-18 cells (glioma). Description: SRB cell proliferation assay, LN-18. It is filed as cell-based. The conditions noted are these: Homo sapiens; LN-18, glioma (Table 2); read-out: IC50 in suppressing proliferation. How it is done:
as §1

For a further assay, the system named is T47-D cells. In words: SRB cell proliferation assay, T47-D. It is filed as cell-based. The conditions noted are these: Homo sapiens, T47D, breast cancer (Table 2), read-out: IC50 in suppressing proliferation. How it is done:
as §1

The subject of another assay is U87 cells (glioblastoma). In words: SRB cell proliferation assay, U87. It is filed as cell-based. The conditions noted are these: Homo sapiens, U-87 MG. As for the experimental part: as §1
The test system of a further assay is 3T3 fibroblast. In words: SRB cell proliferation assay, 3T3. It is filed as cell-based. The conditions noted are these: 3T3, fibroblast (Table 2); read-out: IC50 in suppressing proliferation. How it is done:
as §1

The next assay deals with 1A9 cells. In words: SRB cell proliferation assay, 1A9. In kind it is cell-based. The conditions noted are these: Homo sapiens. How it is done: as §1
The subject of a further assay is MDA-MB-231 cells. Description: SRB cell proliferation assay, MDA-MB-231. In kind it is cell-based. The conditions noted are these: Homo sapiens. How it is done: as §1
In another assay the test system is HeLa cells. In words: SRB cell proliferation assay, HeLa. In kind it is cell-based. The conditions noted are these: Homo sapiens, epithelial (adenocarcinoma) (Table 2), read-out: IC50 in suppressing proliferation. As for the experimental part: as §1
The subject of a further assay is cancer cell lines. Description: SRB cell proliferation assay, range of cancer cell lines (general statements). In kind it is cell-based. As for the experimental part: as §1
In brief, MPL and MPL-SO2 were tested in vitro against a wide range of cancer cell-lines with extensively different disease characteristics. For further detailed studies, human ovarian cancer cell lines OVCAR-3 and A2780 were chosen. Additionally, normal human ovarian surface epithelial cells (HOSE) and were cultured in the presence of MPL (0, 5, 10, 25, 50 and 100 μM) for 72 h. Cell viability was assessed using Trypan blue assay (FIG. 9). Similarly, effect of MPL on the growth of normal epithelial, endothelial, embryonic and fetal cells were investigated (FIG. 10) while cell proliferation was assessed using the SRB assay (FIG. 11). Control (vehicle treated) cells were taken to present 100% proliferation and the MPL treated groups are expressed as percentage of control±SEM. Each drug concentration was tested in quadruplicate and each experiment was repeated at least twice. For statistical comparisons, each drug treated group is compared to the control group using Student's t test. To examine concentration dependent drug effect, analysis of variance (ANOVA) was used. P values are: *=<0.05; **<0.01 and ***=<0.001, **** p<0.0001. […] In order to find out if the MPL effect is mediated through the nicotinic acetyl choline receptor and in particular the nACHR7 subtype, cells were pretreated with antagonists and then exposed to MPL (FIG. 12).

Assay [5] relates to HCT-116 cells (colorectal cancer). In words: SRB cell proliferation assay, HCT-116. It is filed as cell-based. The conditions noted are these: Homo sapiens; HCT-116, colorectal cancer (Table 2); read-out: IC50 in suppressing proliferation. How it is done: as §1
A further assay relates to IGROV-1 cells. Description: SRB cell proliferation assay, IGROV-1. It is filed as cell-based. The conditions noted are these: Homo sapiens; IGROV-1, ovarian cancer (Table 2); read-out: IC50 in suppressing proliferation. As for the experimental part:
as §1

Setting [6] is: HUVEC = human umbilical vein endothelial cells (Table 3), read-out: IC50 μM HUVEC.
Where [7] appears, read: A2780, human epithelial ovarian cancer (Table 3), read-out: IC50 μM A2780.
Where [8] appears, read: CHO = Chinese hamster ovarian cells (Table 3), read-out: IC50 μM CHO.
The mark [9] stands for this setting: OVCAR-3, human epithelial ovarian cancer (Table 3), read-out: IC50 μM OVCAR-3.

In the case of `CC(C#N)(COc1cc(F)ccc1Cl)NC(=O)c1ccc(OC(F)(F)F)cc1` (stereo not shown) [AAD 004], the IC50 in [1] (setting [6]) came out at 93 µM; in the assay with A2780 cells (setting [7]) it was 27.3 ± 0.5 µM; in [2] (setting [8]) it was 57.3 µM; in the assay on OVCAR-3 cells (setting [9]), 18.6 ± 2.4 µM.
For `CC(C#N)(COc1cc(F)c(F)cc1Br)NC(=O)c1ccc(OC(F)(F)F)cc1` (stereo not shown) [AAD 1336], the IC50 in assay [1] (setting [6]) amounted to 61.3 µM; with A2780 cells (setting [7]), 17 ± 1.2 µM; in assay [2] (setting [8]), 31.8 µM; in the assay with OVCAR-3 cells (setting [9]), 14.7 ± 1.25 µM. Moreover, the “ratio of IC50 values (normal cell/cancer cell)” value in the assay with OVCAR-3 cells (results of Table 3) is on record as “particularly high activity”.
With `CC(C#N)(COc1cc(F)c(F)cc1C(F)(F)F)NC(=O)c1ccc(OC(F)(F)F)cc1` (stereo not shown) [AAD 1470], the IC50 in assay [1] (setting [6]) worked out at 74 µM; in the assay on A2780 cells (setting [7]) it was 19.5 ± 4.1 µM; in assay [2] (setting [8]), 32.2 µM; with OVCAR-3 cells (setting [9]), 12.9 ± 0.3 µM. Further, in the assay on OVCAR-3 cells (results of Table 3), the “ratio of IC50 values (normal cell/cancer cell)” value is “particularly high activity”.
As for `C[C@@](C#N)(COc1cc(C#N)ccc1C(F)(F)F)NC(=O)c1ccc(SC(F)(F)F)cc1` [AAD 2224, N-[(1R)-1-cyano-2-(5-cyano-2-trifluoromethyl-phenoxy)-1-methyl-ethyl]-4-trifluoromethylsulfanyl-benzamide], the IC50 in [1] (setting [6]) amounted to 109 µM; in the assay on A2780 cells (setting [7]), 14.8 ± 0.45 µM; in assay [2] (setting [8]), 23.4 µM; in the assay with OVCAR-3 cells (setting [9]) it was 8 ± 0.7 µM. For the same compound, the anthelmintic activity result in the assay on nematodes was “no anthelmintic activity”. Moreover, the “potency of MPL-(R) compared with MPL-(S)” value with OVCAR-3 cells (results of Table 3) was “equipotent”. In addition, the “ratio of IC50 values (normal cell/cancer cell)” value in the assay with OVCAR-3 cells (results of Table 3) is given as “particularly high activity”.
`C[C@](C#N)(COc1cc(C#N)ccc1C(F)(F)F)NC(=O)c1ccc(S(=O)(=O)C(F)(F)F)cc1` [MPL-SO2, monepantel sulphone]: the IC50 in assay [3] stood at 2.75 ± 0.7 µM; in the assay with SKOV-3 cells (SKOV-3, ovarian cancer (Table 2), read-out: IC50 in suppressing proliferation) it was 26 µM; in the assay on SKOV-3 cells (SKOV-3, ovarian cancer, 72 h, SRB assay (Table 1), read-out: IC50) it was 26 µM; in the assay with MCF-7 cells (MCF-7, breast cancer (Table 2), read-out: IC50 in suppressing proliferation) it was 8 ± 0.7 µM; with MCF-7 cells (MCF-7, breast cancer, 72 h, SRB assay (Table 1), read-out: IC50) it was 7.3 µM; in [1] (Homo sapiens, HUVEC (Table 2), read-out: IC50 in suppressing proliferation) it was 47 µM. Further, the IC50 in [1] (Homo sapiens, HUVEC, 72 h, SRB assay (Table 1), read-out: IC50) is 47.8 µM; in assay [4] it was 21.7 µM; in the assay with HaCat keratinocyte, 42.7 ± 8 µM; in the assay on T98G cells (glioma), 25.4 ± 0.28 µM; in the assay with LN-18 cells (glioma) it was 6.64 ± 0.71 µM; in the assay on T47-D cells, 10.2 ± 0.6 µM. Further, the IC50 stood at 4.2 µM in the assay with A2780 cells (Homo sapiens, A2780, ovarian cancer (Table 2), read-out: IC50 in suppressing proliferation); 4.2 µM with A2780 cells (Homo sapiens, A2780, ovarian cancer, 72 h, SRB assay (Table 1), read-out: IC50); 73.7 ± 6 µM in [2] (CHO (Table 2), read-out: IC50 in suppressing proliferation); 73.7 µM in assay [2] (CHO, 72 h, SRB assay (Table 1), read-out: IC50); 20.5 µM in the assay on U87 cells (glioblastoma) (U87, glioblastoma, 72 h, SRB assay (Table 1), read-out: IC50); 20.5 ± 1 µM in the assay with U87 cells (glioblastoma) (U87, glioma (Table 2), read-out: IC50 in suppressing proliferation). For the same compound, the IC50 amounted to 11.2 ± 1.1 µM with 3T3 fibroblast; 3.42 ± 0.1 µM in the assay with 1A9 cells (1A9, ovarian cancer (Table 2), read-out: IC50 in suppressing proliferation); 4.8 µM in the assay on 1A9 cells (1A9, ovarian cancer, 72 h, SRB assay (Table 1), read-out: IC50); 21.6 µM in the assay on MDA-MB-231 cells (MDA-MB-231, breast cancer (Table 2), read-out: IC50 in suppressing proliferation); 23.6 µM with MDA-MB-231 cells (MDA-MB-231, breast cancer, 72 h, SRB assay (Table 1), read-out: IC50); 18.2 ± 2.6 µM in the assay on HeLa cells. Also, the IC50 in the assay on OVCAR-3 cells (Homo sapiens, OVCAR-3, ovarian cancer (Table 2), read-out: IC50 in suppressing proliferation) turned out to be 5.5 ± 1.3 µM; in the assay with OVCAR-3 cells (Homo sapiens, OVCAR-3, ovarian cancer, 72 h in vitro treatment, SRB assay (Table 1), read-out: IC50) it was 5.5 µM; in [5], 22.5 ± 5.7 µM; in the assay on IGROV-1 cells, 4.4 ± 1.5 µM. Further, in the assay with U87 glioma cells, the “formation of vacuoles (autophagy)” value is “formation of vacuoles”. For the same compound, in the assay on cancer cell lines, the “viability of cancer cell-lines growing in culture” value is “reduced viability”. Also, the “potency compared with MPL in suppressing cancer cell proliferation” value in the assay on cancer cell lines (SRB proliferation assay) is recorded as “as potent as MPL; also recorded: as effective as MPL”.
